Test system: thrombi
Experiment: Canine Arteriovenous Shunt model
Format: in vivo, dog
Details: first 1 hour shunt period, 150 μCi/kg, i.v.
Protocol: Canine Arteriovenous Shunt Model: Adult mongrel dogs of either sex (9-13 kg) were anesthetized with pentobarbital sodium (35 mg/kg,i.v.) and ventilated with room air via an endotracheal tube (12 strokes/min, 25 ml/kg). For arterial pressure determination, the left carotid artery was cannulated with a saline-filled polyethylene catheter (PE-240) and connected to a Statham pressure transducer (P23ID; Oxnard, Calif.). Mean arterial blood pressure was determined via damping the pulsatile pressure signal. Heart rate was monitored using a cardiotachometer (Biotach, Grass Quincy, Mass.) triggered from a lead II electrocardiogram generated by limb leads. A jugular vein was cannulated (PE-240) for drug administration. The both femoral arteries and femoral veins were cannulated with silicon treated (Sigmacote, Sigma Chemical Co. St Louis, Mo.), saline filled polyethylene tubing (PE-200) and connected with a 5 cm section of silicon treated tubing (PE-240) to form an extracorporeal arterio-venous shunts (A-V). Shunt patency was monitored using a doppler flow system (model VF-1, Crystal Biotech Inc, Hopkinton, Mass.) and flow probe (2-2.3 mm, Titronics Med. Inst., Iowa City, Iowa) placed proximal to the locus of the shunt. All parameters were monitored continuously on a polygraph recorder (model 7D Grass) at a paper speed of 10 mm/min or 25 mm/sec.
On completion of a 15 min post surgical stabilization period, an occlusive thrombus was formed by the introduction of a thrombogenic surface (4-0 braided silk thread, 5 cm in length, Ethicon Inc., Somerville, N.J.) into the shunt one shunt with the other serving as a control. Two consecutive 1 hr shunt periods were employed with the test agent administered as an infusion over 5 min beginning 5 min before insertion of the thrombogenic surface. At the end of each 1 hr shunt period the silk was carefully removed and weighed and the % incorporation determined via well counting. Thrombus weight was calculated by subtracting the weight of the silk prior to placement from the total weight of the silk on removal from the shunt. […]

Substance: ^99m Tc(tricine) (tris(1-pyrazolyl)borohydride)-Cyclo(D-Val-NMeArg-Gly-Asp-Mamb(hydrazino-nicotinyl-5-Aca)) [Example 1]
- uptake in thrombi compared with positive control (In-111-platelets) and negative controls (Tc-99m-albumin, I-125-fibrinogen) (mixed arterial and venous conditions): taken up in thrombi under both mixed arterial and venous conditions equivalently to the positive control and to a significantly greater extent than the negative controls
- thrombus-to-blood ratio (target-to-background ratio) (mixed arterial conditions): 114
- thrombus-to-blood ratio (target-to-background ratio) (venous conditions): 3.1

From patent US5879659A, “Ternary radiopharmaceutical complexes” (DuPont Pharmaceuticals Company, priority 1997, dated 1999)
